This passage reports IC50 results from BindingDB's records for patent US20250313563 (The Broad Institute, 2025).

Several values for one entry are separate records, joined by “and”; a condition that tells them apart may be missing. Equal entries are not always repeated.

Sequence of Glycogen synthase kinase-3 beta (P49841 whole entry): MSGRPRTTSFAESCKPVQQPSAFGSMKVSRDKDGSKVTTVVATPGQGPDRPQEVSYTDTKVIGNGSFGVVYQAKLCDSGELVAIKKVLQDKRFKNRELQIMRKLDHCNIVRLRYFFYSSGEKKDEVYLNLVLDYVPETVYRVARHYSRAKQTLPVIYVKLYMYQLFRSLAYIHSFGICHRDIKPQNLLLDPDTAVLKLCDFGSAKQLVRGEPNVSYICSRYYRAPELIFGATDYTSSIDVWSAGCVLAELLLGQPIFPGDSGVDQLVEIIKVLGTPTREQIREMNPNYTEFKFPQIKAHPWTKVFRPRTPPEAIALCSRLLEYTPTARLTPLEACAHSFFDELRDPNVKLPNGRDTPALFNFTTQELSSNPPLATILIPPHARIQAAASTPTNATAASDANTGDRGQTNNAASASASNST
Sequence of Glycogen synthase kinase-3 alpha (P49840 whole entry): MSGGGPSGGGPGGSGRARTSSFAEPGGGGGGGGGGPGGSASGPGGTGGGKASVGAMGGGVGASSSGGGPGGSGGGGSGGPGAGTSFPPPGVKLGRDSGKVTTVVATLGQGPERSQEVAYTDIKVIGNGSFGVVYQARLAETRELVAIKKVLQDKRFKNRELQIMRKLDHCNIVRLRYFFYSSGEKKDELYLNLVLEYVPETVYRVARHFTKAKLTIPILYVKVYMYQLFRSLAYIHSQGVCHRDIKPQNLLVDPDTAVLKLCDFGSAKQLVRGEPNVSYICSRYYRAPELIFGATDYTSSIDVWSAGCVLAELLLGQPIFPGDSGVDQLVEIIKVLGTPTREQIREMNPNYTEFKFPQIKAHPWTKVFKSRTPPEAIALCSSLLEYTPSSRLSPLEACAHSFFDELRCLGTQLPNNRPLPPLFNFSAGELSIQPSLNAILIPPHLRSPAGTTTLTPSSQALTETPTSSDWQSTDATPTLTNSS

One assay has as its target Glycogen synthase kinase-3 alpha (Homo sapiens, UniProt P49840). In words: TR-FRET Assay. On the procedure: (§1) The assay was performed in a white, 384 well, low volume, flat bottom plate (Grenier). […] The kinase activity was quenched with 2 μL of 250 mM EDTA. A 10 μL volume of 40 nM Strepavidin-d2, 2 nM Tb2+-pSer641 antibody in TR-FRET Detection Buffer (Invitrogen) was then added.
(In general: In TR-FRET formats the signal depends on donor and acceptor labels being close together.)
On to `CC1(C)CC2=C(C(=O)N1)[C@@](C)(c1cccc(S(C)(=O)=O)c1)C1=C(N=NC1C1CC1)N2` (stereo partly drawn) [US20250313563, Compound 114679], for which the IC50 is under 100 nM.

In turn, `CC[C@@]1(c2cccc(-c3cn(C)nc3C)c2)C2=C(CC(C)(C)NC2=O)NC2N=NC(C(F)F)=C21` (stereo partly drawn) [US20250313563, Compound 950497] came in with an IC50 of under 100 nM.

As for `CCC1(c2cccc(Br)c2)C2=CN=NC2NC2=C1C(=O)NC(C)(C)C2` (stereo not drawn) [US20250313563, Compound 913439], the half-inhibitory concentration (IC50) is under 100 nM.

Regarding `CC[C@@]1(c2cccc(N3CCOCC3)c2)C2=CN=NC2NC2=C1C(=O)CC(C)(C)C2` (stereo partly drawn) [US20250313563, Compound 810363], the IC50 is 100 to 1000 nM. In turn, `CC[C@]1(c2cccc(-c3ccnc(C)c3)c2)C2=CN=NC2NC2=C1C(=O)CC(C)(C)[C@@H]2F` (stereo partly drawn) [US20250313563, Compound 946101] returned an IC50 of 1000 to 5000 nM.

`CC[C@]1(c2cccc(-c3ccncc3C)c2)C2=CN=NC2NC2=C1C(=O)NC1(CCOCC1)C2` (stereo partly drawn) [US20250313563, Compound 948367] came in with a 50% inhibitory concentration (IC50) of 100 to 1000 nM. Compound `CC[C@]1(c2cccc(-c3ccnn3C)c2)C2=CN=NC2NC2=C1C(=O)N[C@@](C)(COC)C2` (stereo partly drawn) [US20250313563, Compound 947907] displayed an IC50 of 1000 to 5000 nM. As to `CC[C@]1(c2cccc(-c3c(F)cncc3F)c2)C2=CN=NC2NC2=C1C(=O)NC(C)(C)C2` (stereo partly drawn) [US20250313563, Compound 948514], the IC50 lay within 1000 to 5000 nM. `CC[C@]1(c2cccc(-c3c(F)cncc3OC)c2)C2=CN=NC2NC2=C1C(=O)NC(C)(C)C2` (stereo partly drawn) [US20250313563, Compound 948145] came in with an IC50 of 100 to 1000 nM. The same measure, in the same setting: the result for `Cn1ccc(S(=O)(=O)N2CCC3(CC2)C2=C(N=NC2)NC2=C3C(=O)NC(C)(C)C2)n1` [US20250313563, Compound 943961] reads < 100 nM and 100 to 1000 nM; that for `CC[C@]1(c2cccc(-c3ccnc(C)c3)c2)C2=C(CC(C)(C)NC2=O)NC2N=NC(C(F)(F)F)=C21` (stereo partly drawn) [US20250313563, Compound 948773], 1000 to 5000 nM. On to `Cc1ccc(S(C)(=O)=O)cc1[C@]1(C)C2=C(CC(C)(C)CC2=O)NC2=C1C(CC(C)(C)C)N=N2` (stereo partly drawn) [US20250313563, Compound 126397], for which the IC50 lay in the range of 1000 to 5000 nM. For `CC[C@@]1(c2cccc(C(F)(F)F)c2)C2=CN=NC2NC2=C1C(=O)N(c1cncnc1)CC2` (stereo partly drawn) [US20250313563, Compound 948380], the IC50 fell in the range of 100 to 1000 nM. Take `CC[C@]1(c2cccc(S(=O)(=O)C3COC3)c2)C2=CN=NC2NC2=C1C(=O)CC(C)(C)C2` (stereo partly drawn) [US20250313563, Compound 946003]: the IC50 is 100 to 1000 nM.

In turn, `CC[C@@]1(c2cccc(-c3ccnn3C)c2)C2=CN=NC2NC2=C1C(=O)CC(C)(C)[C@@H]2F` (stereo partly drawn) [US20250313563, Compound 957509] returned an IC50 of 100 to 1000 nM. Take `CC[C@]1(c2cccc(C(F)(F)F)c2)C2=CN=NC2NC2=C1C(=O)N[C@@H](C(C)(C)C)C2` (stereo partly drawn) [US20250313563, Compound 945921]: the 50% inhibitory concentration (IC50) was 1000 to 5000 nM. Compound `CC[C@@]1(c2cccc(-c3cnn4c3CCCC4)c2)C2=CN=NC2NC2=C1C(=O)CC(C)(C)C2` (stereo partly drawn) [US20250313563, Compound 945544] came in with an IC50 of 100 to 1000 nM. `CC[C@]1(c2cccc(S(=O)(=O)C3CCCCC3)c2)C2=CN=NC2NC2=C1C(=O)CC(C)(C)C2` (stereo partly drawn) [US20250313563, Compound 943547] came in with an IC50 of 1000 to 5000 nM. For the compound `CCc1cccc([C@]2(CC)C3=CN=NC3NC3=C2C(=O)CC(C)(C)C3)c1` (stereo partly drawn) [US20250313563, Compound 949391], the IC50 was 1000 to 5000 nM. Take `CC[C@@]1(c2cccc(N(C)c3ncccn3)c2)C2=C(N=NC2)NC2=C1C(=O)C(C)(C)C2` [US20250313563, Compound 952205]: the IC50 lay in the range of 1000 to 5000 nM. `CC[C@]1(c2cccc(-c3ccnc(C)c3)c2)C2=C(CC(C)(C)CC2=O)NC2N=NC(C)=C21` (stereo partly drawn) [US20250313563, Compound 913051] registered an IC50 of 100 to 1000 nM. As to `CCc1cccc(N(C)c2cccc([C@]3(CC)C4=CN=NC4NC4=C3C(=O)CC(C)(C)C4)c2)n1` (stereo partly drawn) [US20250313563, Compound 945726], the IC50 was in the range of 1000 to 5000 nM. Still for that read-out and setting: the result for `CCC1(c2cccc(OCC(F)F)c2)C2=CN=NC2NC2=C1C(=O)CC(C)(C)C2` (stereo not drawn) [US20250313563, Compound 948793] reads < 100 nM and 100 to 1000 nM; that for `CC[C@]1(c2cccc(-c3cnn4c3CCCC4)c2)C2=CN=NC2NC2=C1C(=O)NC(C)(C)C2` (stereo partly drawn) [US20250313563, Compound 947415], 1000 to 5000 nM; that for `CC[C@@]1(c2cccc(-c3ccnc(C)c3)c2)C2=CN=NC2NC2=C1C(=O)CC(C)(C)C2` (stereo partly drawn) [US20250313563, Compound 865170], 1000 to 5000 nM. Turning to `CC[C@@]1(c2cccc(Oc3cncnc3)c2)C2=CN=NC2NC2=C1C(=O)CC(C)(C)C2` (stereo partly drawn) [US20250313563, Compound 945939], the IC50 was in the range of 100 to 1000 nM. For `CC[C@@]1(c2cccc(Br)c2)C2=CN=NC2NC2=C1C(=O)CC(C)(C)C2` (stereo partly drawn) [US20250313563, Compound 790734], the IC50 lay in the range of 100 to 1000 nM. The same measure, in the same setting: with `CC[C@@]1(c2cccc(N(C)c3ccncc3)c2)C2=CN=NC2NC2=C1C(=O)CC(C)(C)C2` (stereo partly drawn) [US20250313563, Compound 874261] the figure was 100 to 1000 nM; with `CC[C@]1(c2cccc(S(=O)(=O)C3CC3)c2)C2=CN=NC2NC2=C1C(=O)NC(C)(C)C2` (stereo partly drawn) [US20250313563, Compound 946004], 100 to 1000 nM; with `CC[C@@]1(c2cccc(-c3c(C)nn(C)c3C)c2)C2=CN=NC2NC2=C1C(=O)CC(C)(C)C2` (stereo partly drawn) [US20250313563, Compound 911991], 100 to 1000 nM. With `CC[C@@]1(c2cccc(C(F)(F)C(F)(F)F)c2)C2=CN=NC2NC2=C1C(=O)CC(C)(C)C2` (stereo partly drawn) [US20250313563, Compound 949268], the IC50 was 1000 to 5000 nM. Take `CC[C@]1(c2cccc(-c3ccnc(C(F)(F)F)c3)c2)C2=C(CC(C)(C)CC2=O)NC2N=NC(C)=C21` (stereo partly drawn) [US20250313563, Compound 913049]: the IC50 was in the range of 100 to 1000 nM. In turn, `CC[C@@]1(c2cccc(-c3ccncc3F)c2)C2=C(CC(C)(C)NC2=O)NC2N=NC(F)=C21` (stereo partly drawn) [US20250313563, Compound 949651] displayed an IC50 of 100 to 1000 nM. As to `CC[C@@]1(c2cccc(-c3ccnc(OC)c3)c2)C2=CN=NC2NC2=C1C(=O)CC(C)(C)C2` (stereo partly drawn) [US20250313563, Compound 911989], the IC50 is 1000 to 5000 nM. Regarding `CC[C@]1(c2cccc(-c3ccncc3C)c2)C2=CN=NC2NC2=C1C(=O)NC1(CCCC1)C2` (stereo partly drawn) [US20250313563, Compound 948021], the IC50 was 100 to 1000 nM. On the same count and under the same terms, with `CC[C@@]1(c2cccc(-c3cnn(C)c3)c2)C2=CN=NC2NC2=C1C(=O)CC(C)(C)[C@H]2F` (stereo partly drawn) [US20250313563, Compound 957510] the figure was 1000 to 5000 nM; with `CC(C)(C)CC1N=NC2=C1[C@](C)(c1cccc(S(C)(=O)=O)c1)C1=C(CC(C)(C)CC1=O)N2` (stereo partly drawn) [US20250313563, Compound 114687], 100 to 1000 nM. As to `CC[C@]1(c2cccc(-c3cnn(C)c3C(F)(F)F)c2)C2=CN=NC2NC2=C1C(=O)NC(C)(C)C2` (stereo partly drawn) [US20250313563, Compound 948826], the IC50 fell in the range of 1000 to 5000 nM.

The compound `CC[C@]1(c2cccc(-c3ccnn3CCC(C)C)c2)C2=CN=NC2NC2=C1C(=O)CC(C)(C)C2` (stereo partly drawn) [US20250313563, Compound 946096] returned an IC50 of 100 to 1000 nM.

Another assay concerns the target Glycogen synthase kinase-3 beta (Homo sapiens, UniProt P49841). As to the kind of experiment: TR-FRET Assay. On the procedure:
as §1
As for `CC1(C)CC2=C(C(=O)N1)[C@@](C)(c1cccc(S(C)(=O)=O)c1)C1=C(N=NC1C1CC1)N2` (stereo partly drawn) [US20250313563, Compound 114679], the IC50 is 100 to 1000 nM. `CC[C@@]1(c2cccc(-c3cn(C)nc3C)c2)C2=C(CC(C)(C)NC2=O)NC2N=NC(C(F)F)=C21` (stereo partly drawn) [US20250313563, Compound 950497]: the IC50 was < 100 nM and 100 to 1000 nM.

Regarding `CCC1(c2cccc(Br)c2)C2=CN=NC2NC2=C1C(=O)NC(C)(C)C2` (stereo not drawn) [US20250313563, Compound 913439], the IC50 is 100 to 1000 nM. For `CC[C@@]1(c2cccc(N3CCOCC3)c2)C2=CN=NC2NC2=C1C(=O)CC(C)(C)C2` (stereo partly drawn) [US20250313563, Compound 810363], the IC50 fell in the range of 100 to 1000 nM.

Broadly, the IC50 is the concentration that inhibits the measured activity by half. Low values mean higher potency, high ones lower potency.
